Results on 5 compounds are retold here after PubChem BioAssay (NCI).

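Each compound was tested at five concentrations against cells in 96-well plates for 48 hours. TGI: total growth inhibition.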 Some results are limits rather than exact numbers.

Assay in all cases: NCI tumour cell line growth inhibition, 48 h
The test system of assay [1] is DMS 114 small cell lung.
For assay [2], the system named is KM20L2 colon.
Assay [3] has as its system P388 leukemia.
For assay [4], the system named is HOP-18 NSCLC.
In assay [5] the test system is DLD-1 colon.
Assay [6] has as its system P388/ADR leukemia.
Assay [7] has as its system XF 498 CNS.
The test system of assay [8] is LXFL 529 NSCLC.

In the case of `CC(C)NC(=O)OCc1c(CO)c2c(n1C)-c1ccccc1CC2`, the TGI is 40.7 µM in assay [1]; > 84.5 µM in assay [2]; 32.7 µM in assay [3]; 70.1 µM in assay [4]; 46.4 µM in assay [5]; 53.9 µM in assay [6]. For the same compound, in assay [7], the TGI turned out to be 31.3 µM.

Consider `COC(=O)c1ccc(N=NN(C)COc2ccc(Br)cc2)cc1`, for which the TGI in assay [1], in assay [2], in assay [3], in assay [4], in assay [5] and in assay [6] was > 100 µM in each case. In assay [7], the TGI was > 100 µM.

As for `Cc1cc(/C=C/c2cc[n+](C)c3ccccc23)c(O)c2ncccc12`, the TGI in assay [1] came to 1.8 µM; in assay [2] it was 20 µM; in assay [8] it was 16 µM; in assay [4], 11.9 µM; in assay [5], 22.5 µM.

In the case of `Cc1c(N2CCN(C)CC2)nc2ccc(Cl)cc2c1-c1ccccc1`, the TGI came to 31 µM in assay [1], 31.2 µM in assay [2] and 31.7 µM in assay [8].

For the compound `COC1C(O)C(n2ncc3c(SC)nc(SC)nc32)OC1C(O)CO` (centres undefined), the TGI in assay [1], in assay [2], in assay [3], in assay [4], in assay [5] and in assay [6] was > 100 µM each time. Also, the TGI in assay [7] was > 100 µM.
